Measurements taken from patent US9581587B2, “Sperm staining and sorting methods” (INGURAN, LLC, priority 2011, dated 2017).

Tests used:
[1] = system: sperm; test: Split quality, dead quenching dye combined with split enhancing dye (Example 7); type: cell-based, Jersey bull
Protocol: A single Jersey bull was collected at an initial sperm concentration 1810×10^6 sperm/ml in a volume of 3.9 ml. […] Samples were split into two equal aliquots and in one of each pair of samples, a stock solution of phenol red was added to make a final phenol red concentration of 620 μM. […] At each concentration, one control was compared to the addition of phenol red as a split enhancing dye at a concentration of 620 μM. Sorting was performed on a MoFlo SX (Beckman Coulter, USA) in substantially the same manner described in Example 5. After calibration, screen shots of sorting histograms were taken and split quality was measured by the peak to valley ration in the same way described in Example 5. The resulting data is found in Table 15.

[2] = system: sperm; test: Post thaw motility and percent intact acrosomes of sex sorted, frozen-thawed sperm (Example 1); type: cell-based, bovine; details: average over all bulls; for Motility Average 3 Hour: post thaw 3 hours, treatments as E1
Protocol: Sperm was collected from 10 different bulls on a routine collection schedule using an artificial vagina over the course of 4 days. The 10 bulls included both Jersey bulls and Holstein bulls. All ejaculates contained greater than 60% progressive motility and greater than 70% morphological normal sperm. Antibiotics were added within 15 minutes of collection.
Red food dye treatment 40%—A reduced volume of red food dye No. 40 control was established. Sperm was diluted to 160×10^6 sperm per ml in a modified TALP buffer, as described in Table 1, at a pH of 7.4. Samples collected from Jersey bulls were incubated with 16 μl of Hoechst 33342 per 2 ml of sample for between 45 and 60 minutes at 34° C., while samples collected from Holstein bulls were incubated 17 μl of Hoechst 33342 per 2 ml of sample for between 45 and 60 minutes at 34° C. After incubation an equal volume of a second modified TALP was added reducing the concentration to 80×10^6. The second modified TALP includes the components described in Table 1 with the addition of 4% egg yolk, 40 μM red food dye No. 40 (20 g/L) and the pH dropped to 5.5 with HCl.
Yellow food dye was included in a second group at an equal concentration. Sperm was diluted to 160×10^6 sperm per ml in a modified TALP buffer, as described in Table 1, at a pH of 7.4. Samples collected from Jersey bulls were incubated with 14 μl of Hoechst 33342 per 2 ml of sample for between 45 and 60 minutes at 34° C., while sample collected from Holstein bulls were incubated 15 μl of Hoechst 33342 per 2 ml of sample for between 45 and 60 minutes at 34° C. After incubation an equal volume of a second modified TALP was added reducing the concentration to 80×10^6. The second modified TALP includes the components described in Table 1 with the addition 4% egg yolk, […] yellow food dye No. 6 and a pH dropped to 5.5 with HCl. […]
Straws were thawed the following day for motility measurements at 0 hour and 3 hours. Percent intact acrosomes were measured as well, and the overall averages over all bulls on each day are illustrated in Table 3. […]

[3] = system: sperm; test: Post thaw motility of sorted sperm on CASA (Example 4); type: cell-based, canine; details: for Progressive / Motile: average, 0 Hr post thaw
Protocol: Sperm was collected from a single canine at room temperature into CaniPro Chill 5, available from Minitube, WI, USA, then centrifuged into a pellet and resuspended in a Tris buffer at a pH of 6.8.
Samples were extended to 40×10^6 sperm/ml in 1 ml volumes with the Tris buffer described in Example 1 but set to a pH of 7.2. Ten samples were then stained 4, 4, 5, 5, 7, 8, 8, 9, 9, and 10 μL of Hoechst 33342 and quenched with one of two quenching dyes at a concentration of 50 μM in a second buffer Tris buffer.
Red food dye No. 40 quencher—1 ml Tris at a pH 6.3 was added with red food dye No. 40 into samples stained with 4, 5, 8, 9, 10 μL Hoechst 33342. The red food dye No. 40 was added at a concentration of about 50 μM.
Yellow food dye No. 6 quencher—1 ml Tris at a pH 6.3 was added with yellow food dye No. 6 into samples stained with 4, 5, 7, 8, 9 μL Hoechst 33342. The yellow food dye No. 6 was added at the same concentration as the red food dye No. 40 quencher, at about 50 μM.
5 million cells were sex sorted with a MoFlo SX XPD into 50 mL Falcon tubes having 3.5 mL of a Tris-egg yolk catch fluid, described in Example 1 for both X and Y populations. Two samples were sorted, the red food dye No. 40 quenched treatment with 9 μL Hoechst 33342 and the yellow food dye […] quenched treatment with 7 μL Hoechst 33342.
Straws were then frozen and stored in liquid nitrogen.
Straws were thawed for 30 sec in a 38° C. water bath and their motilities were examined on CASA.
Table 12 illustrates the average motilities and progressive motilities for the sorted treatments. Canine sperm quenched with yellow food dye No. 6 provided about 4.5% more motile sperm in the X population and 6.5% more motile sperm in the Y population. Similarly, the yellow quenched dye provided 7% better progressive motility in the X population and 8% better progressive motility in the Y population.

SMILES	peak quality of combination versus dead quencher alone ([1]; phenol red 620 μM with yellow food dye No. 6 62 μM, each sperm concentration tested)	Motility Average 3 Hour [2]	Progressive ([3]; Y population)	Motility Average 0 Hour ([2]; post thaw 0 hour, Red = red food dye No. 40 treatment 40% (16-17 μl Hoechst 33342/2 ml), Yellow = yellow food dye No. 6 (14-15 μl))	better progressive motility than red quenched ([3]; X population)	more motile sperm than red quenched ([3]; X population)	Motile ([3]; X population)	Progressive ([3]; X population)	better progressive motility than red quenched ([3]; Y population)	more motile sperm than red quenched ([3]; Y population)	Motile ([3]; Y population)	Height of Peak Divided by Height of Valley ([1]; 150 million cells per mL, Yellow 6 62 μM, Phenol Red 0 μM)
O=S1(=O)OC(c2ccc(O)cc2)(c2ccc(O)cc2)c2ccccc21 [Phenol Red, phenolsulfonphthalein]	gives better peak quality											
COc1cc(S(=O)(=O)O)c(C)cc1N=Nc1c(O)ccc2cc(S(=O)(=O)O)ccc12 [Red 40, 6-hydroxy-5-[(2-methoxy-5-methyl-4-sulfophenyl)azo]-2-naphthalenesulfonic acid, reference compound]		47.0%	13									
O=S(=O)([O-])c1ccc(N=Nc2c(O)ccc3cc(S(=O)(=O)[O-])ccc23)cc1.[Na+].[Na+] [Yellow 6, Disodium 6-hydroxy-5[(4-sulfophenyl)azo]-2-naphthalenesulfononate]		49.0%	21	57.7%	7%	about 4.5%	24	18.5	8%	~6.5%	25	1.30
